From patent US20220273662A1, “USE OF SILDENAFIL AND ROCK INHIBITORS FOR TREATING STROKE OR SEQUELAE FOLLOWING STROKE” (SOONCHUNHYANG UNIVERSITY INDUSTRY ACADEMY COOPERATION …, priority 2019, published 2022)
Structures can show the parent of a compound that is named as a salt.

Assays:
Format in all cases: in vivo, Sprague-Dawley male rats
[1] = test system: MCAo30 acute stroke (cerebral infarction) model; test: Measurement of infarction volume (TTC staining) after middle cerebral artery occlusion; conditions: relative to MCAo30 (100% stroke range basis); i.p. sildenafil citrate 20 mg/kg and/or GSK429286A 10 mg/kg, 30 min before or after reperfusion; combination value for both before/after groups
Procedure: 8-week-old Sprague-Dawley male rats weighing 260 to 280 g were used as experimental animals, and the experimental animals were obtained from the Experimental Animal Center, at Soonchunhyang University (Cheonan). All experimental animals were arbitrarily provided with commercially available feed and water under specific temperature, humidity and lighting conditions (light-dark cycle 12:12, 22±2° C., 55±5%). All animal protocols were approved by the Administrative Panel on Laboratory Animal Care of Soonchunhyang University (permit No. SCH16-0024). In performing experiments related to the present invention, all possible efforts were made to prevent the suffering of the experimental animals and to minimize the number of experimental animals used during the experiments. […] Finally, images were produced from TTC-stained coronal section brain slices using a model DP72 digital camera and DP2-BSW microscope digital camera software (Olympus, Japan), the area of ischemic brain damage in each brain slice was measured using image analysis software (ImageJ, NIH, USA). […] The volume of total cerebral infarction was the sum of the core and the ischemic penumbra, the damaged volume was calculated as an average percentage of the hemispherical volume, and the volume of edema was adjusted with reference to the results of previous studies. […]

[2] = test system: MCAo30 acute stroke (cerebral infarction) model; test: Open field test (locomotor activity); conditions: normal control = 100% (MCAo30 57.4%), combination given after reperfusion
Procedure: 8-week-old Sprague-Dawley male rats weighing 260 to 280 g were used as experimental animals, and the experimental animals were obtained from the Experimental Animal Center, at Soonchunhyang University (Cheonan). All experimental animals were arbitrarily provided with commercially available feed and water under specific temperature, humidity and lighting conditions (light-dark cycle 12:12, 22±2° C., 55±5%). […] In performing experiments related to the present invention, all possible efforts were made to prevent the suffering of the experimental animals and to minimize the number of experimental animals used during the experiments. […] More specifically, the following experimental drugs were each intraperitoneally administered 30 minutes before reperfusion after middle cerebral artery occlusion and 30 minutes after reperfusion after middle cerebral artery occlusion. i) sildenafil citrate (20 mg/kg/saline, Hanmi Parm. […] An open field black box (60×60×40 cm; length, width, height) was placed in an isolated room without clues, and the experimental animals were placed in the central area of the open field box under diffused light. The distance traveled by the experimental animals was recorded and analyzed for 30 minutes using Ethovision® software, which is a PC-based video motion analysis system. […]

[3] = test system: MCAo30 acute stroke (cerebral infarction) model; test: Light-dark box test (anxiety level); conditions: normal control = 100% (MCAo30 62.08%), combination given after reperfusion
Procedure: 8-week-old Sprague-Dawley male rats weighing 260 to 280 g were used as experimental animals, and the experimental animals were obtained from the Experimental Animal Center, at Soonchunhyang University (Cheonan). All experimental animals were arbitrarily provided with commercially available feed and water under specific temperature, humidity and lighting conditions (light-dark cycle 12:12, 22±2° C., 55±5%). All animal protocols were approved by the Administrative Panel on Laboratory Animal Care of Soonchunhyang University (permit No. SCH16-0024). […] More specifically, the following experimental drugs were each intraperitoneally administered 30 minutes before reperfusion after middle cerebral artery occlusion and 30 minutes after reperfusion after middle cerebral artery occlusion. i) sildenafil citrate (20 mg/kg/saline, Hanmi Parm. Co., Republic of Korea) ii) GSK429286A (10 mg/kg/DMSO, Sigma, USA) iii) sildenafil citrate (20 mg/kg/saline) and GSK429286A (10 mg/kg/DMSO) A light-dark box (45×27×27 cm; length, width, height) was divided into two compartments, and more specifically, three-fifths was a bright compartment and two-fifths was a dark compartment. Each compartment was connected by a 9×9 cm entrance located on the floor. […] Here, sildenafil and the ROCK inhibitor were co-administered after reperfusion after middle cerebral artery occlusion.

[4] = test system: MCAo30 acute stroke (cerebral infarction) model; test: Measurement of fEPSP slope (synaptic plasticity, hippocampal CA1 LTP); conditions: for fEPSP slope: MCAo30 84.11%
Procedure: 8-week-old Sprague-Dawley male rats weighing 260 to 280 g were used as experimental animals, and the experimental animals were obtained from the Experimental Animal Center, at Soonchunhyang University (Cheonan). All experimental animals were arbitrarily provided with commercially available feed and water under specific temperature, humidity and lighting conditions (light-dark cycle 12:12, 22±2° C., 55±5%). […] More specifically, the following experimental drugs were each intraperitoneally administered 30 minutes before reperfusion after middle cerebral artery occlusion and 30 minutes after reperfusion after middle cerebral artery occlusion. i) sildenafil citrate (20 mg/kg/saline, Hanmi Parm. Co., Republic of Korea) ii) GSK429286A (10 mg/kg/DMSO, Sigma, USA) iii) sildenafil citrate (20 mg/kg/saline) and GSK429286A (10 mg/kg/DMSO) Field potentials (fEPSP) were recorded at a slightly modified part from CA1 of the hippocampus. After a behavioral test, the animals were anesthetized intraperitoneally using urethane (1.5 g/kg) and placed in a stereotaxic frame. The rectal temperature during surgery was maintained at 37±0.3° C. using a temperature controller (Harvard Instruments, USA). Next, the scalp was opened and separated, and a hole was made through the skull to introduce electrodes. The coordinates (in mm) based on bregma (a junction of the coronal suture and the sagittal suture in the skull) are as follows. […] The depth of the electrodes was finally determined by observing whether the induced response was optimized. The fEPSP was adjusted to about 60% of the maximum response size for testing, and stimuli were generated by a BNC-2110 apparatus (National Instruments, USA) and a Digital Stimulus Isolation unit (Getting Instruments, CA, USA). The response of pyramidal neurons to the Schaffer collateral stimulus was recorded using a [MUT].C. pre-amplifier (3-1000 Hz bandpass, Astro-Med Inc.) and analyzed using […] . […] A stable baseline was recorded for 30 minutes to 60 minutes. […] The response of fEPSP for the age-matched control was also measured using the same method.

[5] = test system: MCAo30 acute stroke (cerebral infarction) model; test: Barnes maze test (cognitive function, escape time); conditions: compared to normal control, MCAo30 about 3-fold longer than normal control
Procedure: All experimental animals were arbitrarily provided with commercially available feed and water under specific temperature, humidity and lighting conditions (light-dark cycle 12:12, 22±2° C., 55±5%). […] Co., Republic of Korea) ii) GSK429286A (10 mg/kg/DMSO, Sigma, USA) iii) sildenafil citrate (20 mg/kg/saline) and GSK429286A (10 mg/kg/DMSO) A Barnes maze consisted of a circular platform (122 cm in diameter) with 20 holes around the same distance and elevated 105 cm from the floor. Four different visual cues were placed on each quadrant wall surrounding the platform at a height that makes it easy to observe experimental animals, and one hole (escape hole) in the quadrant area includes an escape chamber under the platform. Further, bedding was added to the escape chamber for the safety of experimental animals. […] More specifically, a metronome was used to generate 80 Hz noise and to maintain the illuminance measured at the center of the platform at 300 lux. […] 10 seconds later, when the cylinder was removed, the experimental animal explored the platform from the center and this activity was recorded by a video camera. […] The distance and duration traveled from the quadrant area where the escape chamber connected to the escape hole is located was analyzed by Ethovision® software, and the waiting time to reach the escape chamber connected to the escape hole was manually analyzed.

Row | SMILES | damage to brain tissue after the onset of stroke (infarction volume) [1] | locomotor activity [2] | time in which rats stayed in a bright place compared to the normal control [3] | fEPSP slope ([4]; administered after reperfusion after middle cerebral artery occlusion) | fEPSP slope ([4]; administered before reperfusion after middle cerebral artery occlusion) | fold improved fEPSP slope, group after reperfusion compared to group before reperfusion ([4]; sildenafil alone, after vs before reperfusion) | escape time (in words) [5]
1 | CCCc1nn(C)c2c(=O)[nH]c(-c3cc(S(=O)(=O)N4CCN(C)CC4)ccc3OCC)nc12 [sildenafil, sildenafil citrate] | 26.71% | 70.8% | 63.63% | 158.31% | 102.35% | about 4.06 fold | –
2 | CC1=C(C(=O)Nc2cc3cn[nH]c3cc2F)C(c2ccc(C(F)(F)F)cc2)CC(=O)N1 (stereo not shown) [ROCK inhibitor, N-(6-fluoro-1H-indazol-5-yl)-6-methyl-2-oxo-4-[4-(trifluoromethyl)phenyl]-3,4-dihydro-1H-pyridine-5-carboxamide] | 21.28% | 71% | 84.26% | – | – | – | level similar to that of the normal control
